Target: T1, PI3Kδ (Homo sapiens, UniProt O00329)
T1 construct: endogenous in cells; host or cells: Raji cells
Test: Cell Based Assay for PI3Kδ (AKT phosphorylation, AlphaScreen SureFire, anti-IgM stimulated Raji cells)
Conditions: compounds 1 h, anti-IgM (3 μg/mL) 30 min, phosphorylation of AKT, read-out: PI3Kδ inhibition IC50
Experimental: [formula] C) Cell Based Assay for PI3Kδ
Raji cells were maintained in RPMI-1640 (Sigma) supplemented with 10% fetal bovine serum (heat inactivated) (FBS, Sigma), 100 U penicillin/mL, and […] streptomycin and incubated at 37° C. and 5% CO2. Cells were centrifuged and resuspended in a complete medium. The required numbers of cells were transferred to a tissue culture flask containing medium without serum for 1 h at 37° C., 5% CO2. Following 1 h serum starvation, cells were centrifuged and resuspended in Hank's Balanced Salt Solution (HBSS, Sigma) and seeded in at a density of 1 million cells/well in 96-well clear bottom plates. The cells were treated with test compounds for 1 h at 37° C., 5% CO2. Cells were then stimulated with anti-IgM (3 μg/mL) for 30 min. After Stimulation, cells were lysed with 15 μL of 5× lysis buffer and the plate was shaken on an orbital plate shaker at approximately 300 rpm for 10 min. AlphaScreen® SureFire® Cell-based Assay (Perkin-Elmer, Waltham, Mass., USA) was performed to measure phosphorylation of AKT, in the cells according to the manufacturer's instructions. The luminescence was measured using an alpha technology-compatible plate reader BMG Labtech, Germany) at 520-620 nm. Percentage inhibition was calculated according to formula: […]
IC50 values were calculated by plotting % inhibition against the respective concentrations of test compounds using GraphPad Prism 5.

T1 sequence (O00329 whole entry): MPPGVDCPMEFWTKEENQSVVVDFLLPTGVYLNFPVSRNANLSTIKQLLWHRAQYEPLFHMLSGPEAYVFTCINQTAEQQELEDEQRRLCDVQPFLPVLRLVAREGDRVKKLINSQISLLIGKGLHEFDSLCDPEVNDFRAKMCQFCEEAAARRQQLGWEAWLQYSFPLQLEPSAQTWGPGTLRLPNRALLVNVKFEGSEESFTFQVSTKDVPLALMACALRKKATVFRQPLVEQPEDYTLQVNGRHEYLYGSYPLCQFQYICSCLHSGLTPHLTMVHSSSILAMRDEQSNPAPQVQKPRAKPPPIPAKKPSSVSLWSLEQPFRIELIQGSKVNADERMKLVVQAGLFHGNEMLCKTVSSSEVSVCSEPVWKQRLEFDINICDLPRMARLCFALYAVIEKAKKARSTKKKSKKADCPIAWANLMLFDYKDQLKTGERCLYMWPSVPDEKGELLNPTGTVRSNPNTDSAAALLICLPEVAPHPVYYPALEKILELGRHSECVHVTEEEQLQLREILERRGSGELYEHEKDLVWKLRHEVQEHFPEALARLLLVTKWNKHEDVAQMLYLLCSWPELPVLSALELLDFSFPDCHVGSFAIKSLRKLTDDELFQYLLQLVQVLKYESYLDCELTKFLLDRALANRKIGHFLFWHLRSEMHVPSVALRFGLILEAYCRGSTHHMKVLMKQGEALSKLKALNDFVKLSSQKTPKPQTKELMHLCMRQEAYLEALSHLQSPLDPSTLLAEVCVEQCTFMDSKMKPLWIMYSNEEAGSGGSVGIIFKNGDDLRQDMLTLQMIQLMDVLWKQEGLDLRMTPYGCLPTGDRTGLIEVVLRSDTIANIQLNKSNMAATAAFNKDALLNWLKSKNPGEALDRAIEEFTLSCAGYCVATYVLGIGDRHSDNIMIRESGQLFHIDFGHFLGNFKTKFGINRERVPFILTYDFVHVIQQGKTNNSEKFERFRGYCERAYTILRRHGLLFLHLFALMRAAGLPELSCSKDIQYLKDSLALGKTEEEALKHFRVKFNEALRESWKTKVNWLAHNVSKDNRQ
T1 sequence (P27986 whole entry partner): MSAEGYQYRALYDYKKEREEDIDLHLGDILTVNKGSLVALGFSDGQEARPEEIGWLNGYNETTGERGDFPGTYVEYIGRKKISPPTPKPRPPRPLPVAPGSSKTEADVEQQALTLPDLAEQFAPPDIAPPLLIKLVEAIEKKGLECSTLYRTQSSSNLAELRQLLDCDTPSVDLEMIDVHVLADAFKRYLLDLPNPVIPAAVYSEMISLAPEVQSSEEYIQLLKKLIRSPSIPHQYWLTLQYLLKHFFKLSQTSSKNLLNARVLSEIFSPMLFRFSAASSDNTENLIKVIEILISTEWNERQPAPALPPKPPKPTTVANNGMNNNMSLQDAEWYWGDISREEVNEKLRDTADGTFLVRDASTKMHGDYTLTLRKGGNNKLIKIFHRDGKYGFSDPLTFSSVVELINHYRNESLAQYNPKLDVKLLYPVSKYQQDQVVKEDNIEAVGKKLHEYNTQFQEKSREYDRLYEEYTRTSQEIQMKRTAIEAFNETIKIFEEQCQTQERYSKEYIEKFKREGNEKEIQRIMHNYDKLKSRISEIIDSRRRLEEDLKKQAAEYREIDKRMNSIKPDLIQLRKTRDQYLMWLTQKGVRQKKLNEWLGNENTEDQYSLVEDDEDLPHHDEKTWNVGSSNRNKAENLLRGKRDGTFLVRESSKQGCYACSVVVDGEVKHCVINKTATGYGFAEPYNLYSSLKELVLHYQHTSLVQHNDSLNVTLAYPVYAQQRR

`C[C@@H](c1cc2ccc(F)cn2c(=O)c1-c1ccccc1)n1nc(-c2cc(F)cc(NS(C)(=O)=O)c2)c2c(N)ncnc21` (single isomer, unassigned) [Compound 58a, N-(3-(4-amino-1-(1-(7-fluoro-4-oxo-3-phenyl-4H-quinolizin-2-yl)ethyl)-1H-pyrazolo[3,4-d]pyrimidin-3-yl)-5-fluorophenyl)methanesulfonamide] was tested, and the IC50 was 11 to 50 nM.

`COc1ccc(-c2nn([C@@H](C)c3cc4ccc(F)cn4c(=O)c3-c3ccccc3)c3ncnc(N)c23)cn1` (single isomer, unassigned) [Compound 64a, 2-(1-(4-amino-3-(6-methoxypyridin-3-yl)-1H-pyrazolo[3,4-d]pyrimidin-1-yl)ethyl)-7-fluoro-3-phenyl-4H-quinolizin-4-one] was tested, and the IC50 was 11 to 50 nM.

With `COc1ncc(-c2nn([C@@H](C)c3cc4ccc(F)cn4c(=O)c3-c3ccccc3)c3ncnc(N)c23)cc1NS(C)(=O)=O` (single isomer, unassigned) [Compound 67a, N-(5-(4-amino-1-(1-(7-fluoro-4-oxo-3-phenyl-4H-quinolizin-2-yl)ethyl)-1H-pyrazolo[3,4-d]pyrimidin-3-yl)-2-methoxypyridin-3-yl)methanesulfonamide] the IC50 was 0.1 to 10 nM.

In the case of `C[C@H](Nc1ncnc2[nH]cc(C#N)c12)c1cc2ccc(F)cn2c(=O)c1-c1ccccc1` [Compound 28, (S)-4-((1-(7-fluoro-4-oxo-3-phenyl-4H-quinolizin-2-yl)ethyl)amino)-7H-pyrrolo[2,3-d]pyrimidine-5-carbonitrile], the IC50 is reported as 0.1 to 10 nM.

`Cc1cc(F)cc(-c2c([C@H](C)Nc3ncnc(N)c3C#N)cc3ccc(F)cn3c2=O)c1` [Compound 29, (S)-4-amino-6-((1-(7-fluoro-3-(3-fluoro-5-methylphenyl)-4-oxo-4H-quinolizin-2-yl)ethyl)amino)pyrimidine-5-carbonitrile] was tested, and the IC50 was 11 to 50 nM.

`Cc1cccc(-c2c([C@H](C)Nc3ncnc(N)c3C#N)cc3ccc(F)cn3c2=O)c1` [Compound 31, (S)-4-amino-6-((1-(7-fluoro-4-oxo-3-(m-tolyl)-4H-quinolizin-2-yl)ethyl)amino)pyrimidine-5-carbonitrile] gave an IC50 of 11 to 50 nM.

For `C[C@H](Nc1nc(N)nc2[nH]cnc12)c1cc2ccc(F)cn2c(=O)c1-c1ccccc1` [Compound 33, (S)-2-(1-((2-amino-9H-purin-6-yl)amino)ethyl)-7-fluoro-3-phenyl-4H-quinolizin-4-one], the IC50 was 0.1 to 10 nM.

Work on `C[C@H](Nc1ncnc(N)c1C#N)c1cc2ccc(F)cn2c(=O)c1-c1cccc(OC(F)(F)F)c1` [Compound 34, (S)-4-amino-6-((1-(7-fluoro-4-oxo-3-(3-(trifluoromethoxy)phenyl)-4H-quinolizin-2-yl)ethyl)amino)pyrimidine-5-carbonitrile] yielded an IC50 of 11 to 50 nM.

`C[C@H](Nc1ncnc(N)c1C#N)c1cc2ccc(F)cn2c(=O)c1-c1ccc(F)cc1` [Compound 36, (S)-4-amino-6-((1-(7-fluoro-3-(4-fluorophenyl)-4-oxo-4H-quinolizin-2-yl)ethyl)amino)pyrimidine-5-carbonitrile] was tested, and the IC50 was 11 to 50 nM.

For `C[C@H](Nc1ncnc2[nH]cc(F)c12)c1cc2ccc(F)cn2c(=O)c1-c1ccccc1` [Compound 40, (S)-7-fluoro-2-(1-((5-fluoro-7H-pyrrolo[2,3-d]pyrimidin-4-yl)amino)ethyl)-3-phenyl-4H-quinolizin-4-one], the IC50 was 0.1 to 10 nM.

`C[C@H](Nc1ncnc(N)c1C#N)c1cc2ccc(F)cn2c(=O)c1-c1cc(F)cc(F)c1` [Compound 48, (S)-4-amino-6-((1-(3-(3,5-difluorophenyl)-7-fluoro-4-oxo-4H-quinolizin-2-yl)ethyl)amino)pyrimidine-5-carbonitrile] was tested, and the IC50 was 0.1 to 10 nM.

Work on `C[C@H](Nc1ncnc2[nH]cnc12)c1cc2ccc(F)cn2c(=O)c1-c1cc(F)cc(F)c1` [Compound 50, (S)-2-(1-((9H-purin-6-yl)amino)ethyl)-3-(3,5-difluorophenyl)-7-fluoro-4H-quinolizin-4-one] yielded an IC50 of 11 to 50 nM.

Molecule `C[C@H](Nc1nc(N)nc2[nH]cnc12)c1cc2ccc(F)cn2c(=O)c1-c1cc(F)cc(F)c1` [Compound 51, (S)-2-(1-((2-amino-9H-purin-6-yl)amino)ethyl)-3-(3,5-difluorophenyl)-7-fluoro-4H-quinolizin-4-one] has an IC50 of 11 to 50 nM.

For `C[C@H](Nc1ncnc2scnc12)c1cc2ccc(F)cn2c(=O)c1-c1ccccc1` [Compound 52, (S)-7-fluoro-3-phenyl-2-(1-(thiazolo[5,4-d]pyrimidin-7-ylamino)ethyl)-4H-quinolizin-4-one], the IC50 was 0.1 to 10 nM.

`C[C@H](Nc1nc(N)nc(Cl)c1C#N)c1cc2ccc(F)cn2c(=O)c1-c1ccccc1` [Compound 53, (S)-2-amino-4-chloro-6-((1-(7-fluoro-4-oxo-3-phenyl-4H-quinolizin-2-yl)ethyl)amino)pyrimidine-5-carbonitrile] was tested, and the IC50 was 0.1 to 10 nM.

`C[C@H](Nc1ncnc2cccnc12)c1cc2ccc(F)cn2c(=O)c1-c1ccccc1` [Compound 54, (S)-7-fluoro-3-phenyl-2-(1-(pyrido[3,2-d]pyrimidin-4-ylamino)ethyl)-4H-quinolizin-4-one] gave an IC50 of 0.1 to 10 nM.

In the case of `CC(c1cc2ccc(F)cn2c(=O)c1-c1ccccc1)n1nc(-c2cc(O)cc(F)c2)c2c(N)ncnc21` (stereo not shown) [Compound 59, 2-(1-(4-amino-3-(3-fluoro-5-hydroxyphenyl)-1H-pyrazolo[3,4-d]pyrimidin-1-yl)ethyl)-7-fluoro-3-phenyl-4H-quinolizin-4-one], the IC50 is reported as 0.1 to 10 nM.

`CC(c1cc2ccc(F)cn2c(=O)c1-c1ccccc1)n1nc(-c2ccc(O)c(F)c2)c2c(N)ncnc21` (stereo not shown) [Compound 60, 2-(1-(4-amino-3-(3-fluoro-4-hydroxyphenyl)-1H-pyrazolo[3,4-d]pyrimidin-1-yl)ethyl)-7-fluoro-3-phenyl-4H-quinolizin-4-one] gave an IC50 of 11 to 50 nM.

Molecule `CC(c1cc2ccc(F)cn2c(=O)c1-c1ccccc1)n1nc(-c2ccc(F)c(O)c2)c2c(N)ncnc21` (stereo not shown) [Compound 61, 2-(1-(4-amino-3-(4-fluoro-3-hydroxyphenyl)-1H-pyrazolo[3,4-d]pyrimidin-1-yl)ethyl)-7-fluoro-3-phenyl-4H-quinolizin-4-one] has an IC50 of 0.1 to 10 nM.

Work on `CC(c1cc2ccc(F)cn2c(=O)c1-c1ccccc1)n1nc(-c2cccc(O)c2)c2c(N)ncnc21` (stereo not shown) [Compound 62, 2-(1-(4-amino-3-(3-hydroxyphenyl)-1H-pyrazolo[3,4-d]pyrimidin-1-yl)ethyl)-7-fluoro-3-phenyl-4H-quinolizin-4-one] yielded an IC50 of 0.1 to 10 nM.

Work on `CC(c1cc2ccc(F)cn2c(=O)c1-c1ccccc1)n1cc(-c2cc(O)cc(F)c2)c2c(N)ncnc21` (stereo not shown) [Compound 63, 2-(1-(4-amino-5-(3-fluoro-5-hydroxyphenyl)-7H-pyrrolo[2,3-d]pyrimidin-7-yl)ethyl)-7-fluoro-3-phenyl-4H-quinolizin-4-one] yielded an IC50 of 0.1 to 10 nM.

Molecule `CC(c1cc2ccc(F)cn2c(=O)c1-c1ccccc1)n1nc(-c2ccc3c(c2)CC(=O)N3)c2c(N)ncnc21` (stereo not shown) [Compound 65, 2-(1-(4-amino-3-(2-oxoindolin-5-yl)-1H-pyrazolo[3,4-d]pyrimidin-1-yl)ethyl)-7-fluoro-3-phenyl-4H-quinolizin-4-one] has an IC50 of 51 to 250 nM.
